One series deals with Leptosphaeria nodorum. Kind of series: Leptosphaeria nodorum test (wheat) / protective. As to conditions: 500 ppm active compound, protective spray, evaluated 7-9 days after inoculation. It counts as in vivo. The procedure:
Leptosphaeria nodorum Test (Wheat)/Protective
Solvent: 49 parts by weight of N,N-dimethylformamide
Emulsifier: 1 part by weight of alkylaryl polyglycol ether
To produce a suitable preparation of active compound, 1 part by weight of active compound is mixed with the stated amounts of solvent and emulsifier, and the concentrate is diluted with water to the desired concentration.
To test for protective activity, young wheat plants are sprayed with the preparation of active compound at the stated application rate. […] The plants are then placed in a greenhouse at 90% rel. atmospheric humidity and a temperature of 22° C.
Evaluation is carried out 7-9 days after the inoculation. 0% means an efficacy which corresponds to that of the control, whereas an efficacy of 100% means that no infection is observed.

Another series deals with Alternaria solani. As to the kind of experiment: Alternaria test (tomato) / protective. It counts as in vivo. The note with it: 500 ppm active compound, protective spray, evaluated 7 days after inoculation. Summed up:
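Efficacy scored 7 days after inoculation, where 100% means no infection and 0% matches the untreated control. Test plants were young tomatoes given a protective spray at the stated rate, compound dissolved in DMF plus emulsifier and diluted with water. Incubation at 20° C, 96% relative humidity.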

A further series concerns Fusarium graminearum. It counts as cell-based. As to conditions: 50 μM; for % Inhibition of DON/AcDON at 50 μM: 7 days at 28° C.
In a further series the test system is Pyrenophora teres. Kind of series: In vivo test on Pyrenophora teres (barley net blotch). As to conditions: dose of 500 ppm; barley plants; grading 12 days after contamination. The essentials:
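Scoring is done 12 days after spore spraying (12,000 spores/ml, from 12-day-old culture), relative to water-treated controls. Inoculation follows by 24 h a preventive spray of the aqueous-diluted formulation onto 1-leaf Plaisant barley raised at 12° C.; infection holds 24 h at about 20° C./100% RH, then 12 days at 80% RH.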

Each structure is given as a SMILES string. Read-outs that look alike come from different tables or passages of the source. Marks after values point to notes of the source that are not given here.

In the case of `CCC(C)n1cc(-c2ccncc2)c(-c2ccc(Br)s2)n1` (stereo not shown) [Example 354], the figures for the efficacy in the series on Leptosphaeria nodorum and in the series with Alternaria solani were 70% and 90%, respectively. The log p (pH 2.7) is 2.15^[b]. In addition, the “% Inhibition of fungal growth at 50 μM” value in the series with Fusarium graminearum amounted to 97%. In addition, the “% Inhibition of DON/AcDON at 50 μM” value in the series on Fusarium graminearum came to 99%. The compound further displayed a protection in the series on Pyrenophora teres of 95%.

For the compound `CCn1cc(-c2ccnc(NC(=O)CC(C)C)c2)c(-c2ccc(Cl)s2)n1` [Example 286], the efficacy with Leptosphaeria nodorum and with Alternaria solani was 90% in each case. Further, the log p (pH 2.7) is 3.15^[b]. Besides, the “% Inhibition of fungal growth at 50 μM” value in the series with Fusarium graminearum was 68%. Besides, the “% Inhibition of DON/AcDON at 50 μM” value in the series with Fusarium graminearum is 99%. The same compound had a protection in the series with Pyrenophora teres of 80%.

As to `Cn1cc(-c2ccnc(NC(=O)CC3CC3)c2)c(-c2ccc(Cl)s2)n1` [Example 281], the efficacy in the series with Leptosphaeria nodorum amounted to 80%; in the series on Alternaria solani, 90%. For the same compound, the log p (pH 2.7) is 2.54^[b]. Further, the “% Inhibition of fungal growth at 50 μM” value in the series on Fusarium graminearum worked out at 100%. Besides, in the series with Fusarium graminearum, the “% Inhibition of DON/AcDON at 50 μM” value stood at 99%. In the series on Pyrenophora teres, this compound returned a protection of 90%.

Consider `CC(C)n1cc(-c2ccncc2)c(-c2ccc(Br)s2)n1` [Example 387], for which the efficacy in the series with Leptosphaeria nodorum is given as 90%. In addition, under “pH 2.7”, the log p is 1.88^[b]. Moreover, the efficacy in the series on Alternaria solani amounted to 100%. In the series with Fusarium graminearum, the “% Inhibition of fungal growth at 50 μM” value was 93% and the “% Inhibition of DON/AcDON at 50 μM” value came out at 99%. The protection in the series on Pyrenophora teres is listed as 80%.

In the case of `CC(C)C(=O)Nc1cc(-c2cn(C)nc2-c2ccc(Cl)s2)ccn1` [Example 288], the efficacy is reported as 70% in the series on Leptosphaeria nodorum and 90% in the series with Alternaria solani. Moreover, where the note is “pH 2.7”, the log p is 2.39^[b]. Moreover, in the series on Fusarium graminearum, the “% Inhibition of fungal growth at 50 μM” value was 92%. In the series with Fusarium graminearum, the “% Inhibition of DON/AcDON at 50 μM” value is given as 99%. Moreover, the protection with Pyrenophora teres was determined as 95%.

The compound `CCC(=O)Nc1cc(-c2cn(CC)nc2-c2ccc(Cl)s2)ccn1` [Example 263] came in with an efficacy in the series with Leptosphaeria nodorum of 80%. Further, the log p (pH 2.7) was 2.4^[b]. For the same compound, the efficacy with Alternaria solani came out at 95%. For the same compound, in the series on Fusarium graminearum, the “% Inhibition of fungal growth at 50 μM” value was 100% and the “% Inhibition of DON/AcDON at 50 μM” value is recorded as 99%. Moreover, the protection with Pyrenophora teres is 90%.

`CC(C)n1cc(-c2ccnc(NC(=O)C3CCC3)c2)c(-c2ccc(Cl)s2)n1` [Example 243] had an efficacy with Leptosphaeria nodorum of 90%. Besides, the log p (pH 2.7) is 3.37^[b]. Also, the efficacy with Alternaria solani amounted to 90%. Further, in the series on Fusarium graminearum, the “% Inhibition of fungal growth at 50 μM” value is on record as 31% and the “% Inhibition of DON/AcDON at 50 μM” value worked out at 99%. The compound also had a protection in the series on Pyrenophora teres of 95%.

In the case of `CCn1cc(-c2ccnc(NC(=O)C3CC3)c2)c(-c2ccc(Cl)s2)n1` [Example 264], the efficacy is recorded as 80% in the series on Leptosphaeria nodorum and 90% in the series on Alternaria solani. The log p (pH 2.7) is 2.52^[b]. Besides, the “% Inhibition of fungal growth at 50 μM” value in the series on Fusarium graminearum was found to be 100%. Further, in the series on Fusarium graminearum, the “% Inhibition of DON/AcDON at 50 μM” value stood at 99%. For the same compound, the protection in the series on Pyrenophora teres was determined as 90%.

On to `CCC(=O)Nc1cc(-c2cn(C(C)CC)nc2-c2ccc(Cl)s2)ccn1` (stereo not shown) [Example 225], for which the efficacy in the series with Leptosphaeria nodorum was 70%; in the series with Alternaria solani, 95%. Besides, the log p (pH 2.7) is 3.19^[b]. Also, the “% Inhibition of fungal growth at 50 μM” value in the series with Fusarium graminearum is listed as 87%. Also, the “% Inhibition of DON/AcDON at 50 μM” value in the series with Fusarium graminearum was 99%. In the series with Pyrenophora teres, this compound yielded a protection of 95%.

As for `Cc1c(-c2ccncc2)c(-c2ccc(Cl)s2)nn1C(C)C` [Example 145], the efficacy in the series with Leptosphaeria nodorum was determined as 95%; with Alternaria solani, 100%. In addition, the log p was 2.07^[b] (pH 2.7) and 3.8^[c]; (pH 7.8). The protection in the series with Pyrenophora teres is 100%.

In turn, `CCC(C)C(=O)Nc1cc(-c2cn(C(C)C)nc2-c2ccc(Cl)s2)ccn1` (stereo not shown) [Example 249] showed an efficacy with Leptosphaeria nodorum of 80%. The log p (pH 2.7) is 3.61^[b]. In the series on Alternaria solani, this compound displayed an efficacy of 95%. In the series with Fusarium graminearum, the “% Inhibition of fungal growth at 50 μM” value was 11% and the “% Inhibition of DON/AcDON at 50 μM” value amounted to 99%. In the series on Pyrenophora teres, this compound yielded a protection of 95%.

As for `CCn1cc(-c2ccnc(NC(C)=O)c2)c(-c2ccc(Cl)s2)n1` [Example 284], the efficacy is recorded as 80% in the series on Leptosphaeria nodorum and 95% with Alternaria solani. In addition, the log p (pH 2.7) was 2.1^[b]. Besides, the “% Inhibition of fungal growth at 50 μM” value with Fusarium graminearum was found to be 100%. Further, the “% Inhibition of DON/AcDON at 50 μM” value with Fusarium graminearum was 99%. In the series on Pyrenophora teres, this compound gave a protection of 100%.

Consider `C#CCNc1nccc(-c2cn(C(C)C)nc2-c2ccc(Cl)s2)n1` [Example 180], for which the efficacy in the series with Leptosphaeria nodorum is listed as 70%. For the same compound, the log p (pH 2.3) is 3.25^[a]. In the series with Pyrenophora teres, this compound gave a protection of 80%.

Regarding `CCC(=O)Nc1nccc(-c2cn(C(C)CC)nc2-c2ccc(Cl)s2)n1` (stereo not shown) [Example 190], the efficacy in the series with Leptosphaeria nodorum is listed as 70%; in the series on Alternaria solani, 80%. The log p (pH 2.3) is 3.37^[a]. Moreover, in the series with Pyrenophora teres, the protection was 95%.

Regarding `CCC(=O)Nc1cc(-c2c(-c3ccc(Cl)s3)nn(C)c2C)ccn1` [Example 170], the efficacy with Leptosphaeria nodorum and with Alternaria solani was 90% each time. Also, the log p by setting is: (pH 2.7) 2.32^[b]; (pH 7.8) 2.68^[c];. Further, the protection in the series with Pyrenophora teres was found to be 80%.

`CC(C)n1cc(-c2ccnc(NC(=O)N(C)C)c2)c(-c2ccc(Cl)s2)n1` [Example 248]: the efficacy with Leptosphaeria nodorum and in the series with Alternaria solani was 90% in each case. Moreover, the log p (pH 2.7) is 1.97^[b]. In addition, the protection in the series on Pyrenophora teres amounted to 100%.

In the series on Leptosphaeria nodorum, `CCC(=O)Nc1nccc(-c2cn(C(C)C)nc2-c2ccc(Cl)s2)n1` [Example 172] returned an efficacy of 89%. In addition, the log p (pH 2.3) was 3.04^[a]. For the same compound, the protection with Pyrenophora teres was determined as 100%.

Regarding `CCC(=O)Nc1cc(-c2c(-c3ccc(Cl)s3)nn(C(C)C)c2C)ccn1` [Example 168], the efficacy with Leptosphaeria nodorum and in the series on Alternaria solani was 90% throughout. For the same compound, the log p by setting is: (pH 2.7) 3.34^[b]; (pH 7.8) 3.76^[c];. In addition, in the series on Pyrenophora teres, the protection amounted to 90%.

`CCn1cc(-c2ccnc(NC(=O)C3CCC3)c2)c(-c2ccc(Cl)s2)n1` [Example 269] displayed an efficacy with Leptosphaeria nodorum of 70%. The log p (pH 2.7) is 2.92^[b]. Also, in the series with Fusarium graminearum, the “% Inhibition of fungal growth at 50 μM” value came to 58% and the “% Inhibition of DON/AcDON at 50 μM” value is given as 87%. The compound also gave a protection with Pyrenophora teres of 80%.

In the case of `Cn1cc(-c2ccnc(NC(=O)Cc3ccccc3)c2)c(-c2ccc(Cl)s2)n1` [Example 277], the figures for the efficacy with Leptosphaeria nodorum and with Alternaria solani were 70% and 90%, respectively. The log p (pH 2.7) is 3.06^[b]. The protection with Pyrenophora teres is on record as 90%.

Regarding `CCC(C)n1cc(-c2ccnc(NC(=O)C(C)C)n2)c(-c2ccc(Cl)s2)n1` (stereo not shown) [Example 173], in the series on Leptosphaeria nodorum, the efficacy was found to be 89%. Further, the log p (pH 2.3) was 3.72^[a]. In the series on Pyrenophora teres, this compound came in with a protection of 95%.

Consider `CC(=O)N(C(C)=O)c1nccc(-c2cn(C(C)C)nc2-c2ccc(Cl)s2)n1` [Example 171], for which the efficacy in the series with Leptosphaeria nodorum is listed as 89%. Under “pH 2.3”, the log p is 3.33^[a]. In the series on Pyrenophora teres, this compound had a protection of 95%.

Regarding `CC(C)Nc1nccc(-c2cn(C(C)C)nc2-c2ccc(Cl)s2)n1` [Example 181], in the series on Leptosphaeria nodorum, the efficacy amounted to 70%. The log p (pH 2.3) is 2.82^[a]. For the same compound, the protection in the series with Pyrenophora teres is 80%.

Consider `CCn1nc(-c2ccc(Cl)s2)c(-c2ccncc2)c1C` [Example 146], for which the efficacy in the series on Leptosphaeria nodorum and with Alternaria solani was 95% in each case. In addition, the log p (pH 2.7) is 1.61^[b] and the log p (pH 7.8) is 3.08^[c];. The protection with Pyrenophora teres stood at 100%.

Take `CCC(C)C(=O)Nc1cc(-c2cn(C)nc2-c2ccc(Cl)s2)ccn1` (stereo not shown) [Example 280]: the efficacy in the series with Leptosphaeria nodorum is reported as 80%; in the series on Alternaria solani it was 90%. Where the note is “pH 2.7”, the log p is 2.71^[b]. Moreover, the protection with Pyrenophora teres was found to be 90%.

In the case of `CC(C)n1cc(-c2ccnc(NC3COC3)n2)c(-c2ccc(Cl)s2)n1` [Example 179], the efficacy in the series with Leptosphaeria nodorum and with Alternaria solani was 80% throughout. Also, the log p (pH 2.3) is 2.7^[a]. Further, the protection with Pyrenophora teres was found to be 90%.

With `CCC(=O)Nc1cc(-c2cn(C(C)C)nc2-c2cccs2)ccn1` [Example 175], the efficacy in the series with Leptosphaeria nodorum was 70%; in the series on Alternaria solani, 80%. Further, the log p by setting is: (pH 2.7) 2.01^[b]; (pH 7.8) 2.61^[c];. In the series with Pyrenophora teres, this compound had a protection of 90%.

`CCC(=O)Nc1cc(-c2c(-c3ccc(Cl)s3)nn(CC)c2C)ccn1` [Example 169]: the efficacy in the series on Leptosphaeria nodorum turned out to be 80%; with Alternaria solani, 95%. In addition, the log p by setting is: (pH 2.7) 2.71^[b]; (pH 7.8) 3.1^[c];. The compound further registered a protection with Pyrenophora teres of 95%.

Consider `CC1(Cn2cc(-c3ccncc3)c(-c3ccc(Br)s3)n2)CC1(Cl)Cl` (stereo not shown) [Example 386], for which the efficacy in the series with Leptosphaeria nodorum came out at 80%. Besides, under “pH 2.7”, the log p was 2.75^[b] and the “logP value of the minor isomer” value is on record as “(2.50)”. In the series with Alternaria solani, this compound had an efficacy of 89%. Besides, in the series with Fusarium graminearum, the “% Inhibition of fungal growth at 50 μM” value came out at 0% and the “% Inhibition of DON/AcDON at 50 μM” value is given as 99%.

Source of the values: US8685974B2 (Bayer CropScience AG, priority 2009, dated 2014).
